Test results published in US12121524B2, “DNA-PK inhibitors” (VERTEX PHARMACEUTICALS INCORPORATED, priority 2018, dated 2024).
Where “and” joins values, the source holds several entries; their conditions need not be identical. Equal entries are not always repeated.

Legend:
DNA-PK = DNA-PK (Homo sapiens, UniProt P78527); experiment: DNA-PK inhibition assay (standard radiometric 33P-ATP kinase assay); assay type: biochemical; settings: 100 μM ATP, approx. 6 nM DNA-PK
Experimental: Compounds were screened for their ability to inhibit DNA-PK kinase using a standard radiometric assay. Briefly, in this kinase assay the transfer of the terminal ^33P-phosphate in ^33P-ATP to a peptide substrate is interrogated. The assay was carried out in 384-well plates to a final volume of 50 μL per well containing approximately 6 nM DNA-PK, 50 mM HEPES (pH 7.5), 10 mM MgCl2, 25 mM NaCl, 0.01% BSA, 1 mM DTT, 10 μg/mL sheared double-stranded DNA (obtained from Sigma), 0.8 mg/mL DNA-PK peptide (Glu-Pro-Pro-Leu-Ser-Gln-Glu-Ala-Phe-Ala-Asp-Leu-Trp-Lys-Lys-Lys, obtained from American Peptide), and 100 μM ATP.
Accordingly, compounds of the invention were dissolved in DMSO to make 10 mM initial stock solutions. Serial dilutions in DMSO were then made to obtain the final solutions for the assay. A 0.75 μL aliquot of DMSO or inhibitor in DMSO was added to each well, followed by the addition of ATP substrate solution containing ^33P-ATP (obtained from Perkin Elmer). The reaction was started by the addition of DNA-PK, peptide and ds-DNA. After 45 min, the reaction was quenched with 25 μL of 5% phosphoric acid. The reaction mixture was transferred to MultiScreen HTS 384-well PH plates (obtained from Millipore), allowed to bind for one hour, and washed three times with 1% phosphoric acid. Following the addition of 50 μL of Ultima Gold™ high efficiency scintillant (obtained from Perkin Elmer), the samples were counted in a Packard TopCount NXT Microplate Scintillation and Luminescence Counter (Packard BioScience). The Ki values were calculated using Microsoft Excel Solver macros to fit the data to the kinetic model for competitive tight-binding inhibition.

mPB CD34+ cells [1] = experiment: Gene editing rates in CD34+ cells, Example 19 (lower sgRNA and ssODN); assay type: cell-based, human; settings: for % HDR: NAV1.7, 48 h
Experimental: Primary human mobilized peripheral blood (mPB) CD34^+ hematopoietic stem and progenitor cells (HSPCs) were purchased from Hemacare or AllCells. Cells were thawed, washed and resuspended in complete medium comprised of serum free medium CellGro SCGM (CellGenix) and supplemented with cytokine mix (300 ng/mL SCF, 300 ng/mL Flt3 L, 100 ng/mL TPO, 60 ng/ml IL-3) at a density of 1-3×10^5 cells per mL and incubated at 37° C./5% CO2 incubator for 48 hours prior to electroporation.
(§1) CD34^+ cells were electroporated two days post thaw. The following conditions were used for electroporation: 2.0×E6 cells, 15 μg Cas9 protein (Feldan), 15 μg sgRNA, 1 μM of ssODN in 100 μl of P3 electroporation buffer using program CA-137. Electroporated cells were transferred by equally dividing them into eight wells of a 24-well plate, each well containing various concentrations of DNA-PK inhibitors. Cells were incubated at 37° C. in a 5% CO2 incubator for two days and evaluated for cell viability and gene editing.
Genomic DNA was isolated by incubating cells with 50 ul DNA Quickextract solution (Epicentre) per well of 96 well plate for 30 min at 37° C. Cellular extract was mixed and transferred into a PCR plate and then incubated for 6 min at 65° C. and 2 min at 98° C. PCR reactions were carried out with 1 ul of Genomic DNA containing solution by using AccuPrime™ Pfx DNA Polymerase (Thermofisher, 12344024). PCR conditions were 4 min at 94° C. (1×), followed by 15 s at 94° C., 15 s at 60° C. and 1 min at […]. The PCR products were purified and then Sanger sequenced by GENEWIZ. The following primer pairs spanning the target site were used for PCR (FW, forward; RV, reverse). Primers used by Sanger Sequencing are indicated by an asterisk (*): […]
Each sequence chromatogram was analyzed using TIDE (Tracking of Indels by Decomposition) software (http://tide.nki.nl) (See also Brinkman et al., Nucleic Acids Research, Volume 42, Issue 22, 16 Dec. 2014, Pages e168). Mock-electroporated samples were used as the reference sequence, and parameters were set to an indel size of 30 nt, and the decomposition window was set to cover the largest possible window with high-quality traces. Total indel (insertion and deletions) rates were obtained directly from TIDE plots. HDR rates were the percentage of events with an insertion of 10 Nucleotides. NHEJ Rates were calculated as Total Indel rate−HDR rate. GraphPad Prism 7 software was used to make Graphs and to calculate the all Statistical information.
(§2) mPB CD34^+ cells were electroporated with RNP (spCAS9 protein+NAV1.7 sgRNA) and NAV1.7 Non-PAM ssODN. Cells were then incubated with various concentrations of Compounds 661, 663 and 666. Experiments were done as described in the methods above, except lower concentrations of sgRNA (5 μg) and ssODN (0.2 μM) were used. Gene editing rates were determined by using TIDE assay 48 h after electroporation. Gene editing rates were expressed in percentages and classified as HDR and NHEJ.

mPB CD34+ cells [2] = experiment: CD34+ cell viability (Cell Titer Glo), Example 19; assay type: cell-based, human; settings: untreated control = 100
Experimental: as §1
CD34^+ HSPCs cell survival was measured using Cell Titer Glo (CTG) reagent (Promega). 100 μl of cell suspension was mixed with 100 μl complete CTG reagent. The chemiluminescent signal was measure using a luminometer and % of viable cells was calculated as compared to control cells (cells not treated with the DNA-PK inhibitors).
as §2

CD34+ cells = experiment: HDR gene editing rates in CD34+ cells, spCAS9 mRNA, AAVS1 (Example 20); assay type: cell-based, human; settings: AAVS1 sgRNA, AAVS1 Non-PAM ssODN, 72 hs, FIGS. 8-10
Experimental: To investigate the effect of DNA-PK inhibitors on HDR gene editing rates, CD34^+ cells were electroporated with spCAS9 mRNA, AAVS1 sgRNA and AAVS1 Non-PAM ssODN and then incubated with different concentrations of Compounds 666, 661, 663 or left untreated (Control). Gene editing rates were determined by using TIDE assay 72 hs after electroporation. Gene editing rates were expressed in percentages and classified as HDR and NHEJ. Cell survival rates are shown in percentages where control cells were set as 100%.

SMILES | Ki (DNA-PK) | % NHEJ (mPB CD34+ cells [1]; Donor A, 0.37 μM) | % HDR (mPB CD34+ cells [1]; Donor A, 0.37 μM) | % Indels (mPB CD34+ cells [1]; Donor A, 1.11 μM) | % NHEJ (mPB CD34+ cells [1]; Donor A, 1.11 μM) | % WT (mPB CD34+ cells [1]; Donor A, 1.11 μM) | % HDR (mPB CD34+ cells [1]; Donor A, 1.11 μM) | % Indels (mPB CD34+ cells [1]; Donor A, 3.33 μM) | % WT (mPB CD34+ cells [1]; Donor A, 3.33 μM) | % HDR (mPB CD34+ cells [1]; Donor A, 3.33 μM) | % NHEJ (mPB CD34+ cells [1]; Donor A, 10 μM) | % Indels (mPB CD34+ cells [1]; Donor A, 10.00 μM) | % WT (mPB CD34+ cells [1]; Donor A, 10.00 μM) | % HDR (mPB CD34+ cells [1]; Donor A, 10 μM) | % NHEJ (mPB CD34+ cells [1]; Donor D, 0.37 μM) | % HDR (mPB CD34+ cells [1]; Donor D, 0.37 μM) | % Indels (mPB CD34+ cells [1]; Donor D, 1.11 μM) | % NHEJ (mPB CD34+ cells [1]; Donor D, 1.11 μM) | % WT (mPB CD34+ cells [1]; Donor D, 1.11 μM) | % HDR (mPB CD34+ cells [1]; Donor D, 1.11 μM) | further results
CNC(=O)c1ccnc(N[C@H]2CC[C@@H](Oc3cc(N4CCOCC4)cc4nccnc34)CC2)n1 [Compound 661] | 1 nM | 66.2% | 21.8% | 59.4% | 59.4% | 4.2% | 31.7% | 57.8% | 5.1% | 32.2% | 47% | 47% | 18.9% | 28% | 78.1% | 6.9% | 77.5% | 77.5% | 6% | 10.8% | % Indels (mPB CD34+ cells [1]; Donor D, 3.33 μM): 76.7%; % WT (mPB CD34+ cells [1]; Donor D, 3.33 μM): 6.4%; % HDR (mPB CD34+ cells [1]; Donor D, 3.33 μM): 11.5%; % NHEJ (mPB CD34+ cells [1]; Donor D, 10 μM): 64.2%; % Indels (mPB CD34+ cells [1]; Donor D, 10.00 μM): 64.2%; % WT (mPB CD34+ cells [1]; Donor D, 10.00 μM): 11.1%; % HDR (mPB CD34+ cells [1]; Donor D, 10 μM): 13.4%; Viability (mPB CD34+ cells [2]; Donor A, 1.11 μM): 60; Viability (mPB CD34+ cells [2]; Donor A, 3.33 μM): 47; Viability (mPB CD34+ cells [2]; Donor A, 10.00 μM): 6; Viability (mPB CD34+ cells [2]; Donor D, 1.11 μM): 62; Viability (mPB CD34+ cells [2]; Donor D, 3.33 μM): 75; Viability (mPB CD34+ cells [2]; Donor D, 10.00 μM): 11; HDR rates (CD34+ cells): improve HDR rates
CNC(=O)c1ccnc(N[C@H]2CC[C@@H](Oc3cc(N4CCOCC4)cc4nonc34)CC2)n1 [Compound 666, N-methyl-2-((4-((6-morpholinobenzo[c][1,2,5]oxadiazol-4-yl)oxy)cyclohexyl)amino)pyrimidine-4-carboxamide] | 1 nM and < 100 nM | 67.3% | 23.2% | 58.8% | 58.8% | 3.5% | 31.5% | 56.5% | 5.8% | 32.4% | 52% | 52% | 9.7% | 33.6% | 79.2% | 5.5% | 77.5% | 77.5% | 6.2% | 11% | % Indels (mPB CD34+ cells [1]; Donor D, 3.33 μM): 73.8%; % WT (mPB CD34+ cells [1]; Donor D, 3.33 μM): 5.3%; % HDR (mPB CD34+ cells [1]; Donor D, 3.33 μM): 14.3%; % NHEJ (mPB CD34+ cells [1]; Donor D, 10 μM): 69%; % Indels (mPB CD34+ cells [1]; Donor D, 10.00 μM): 69%; % WT (mPB CD34+ cells [1]; Donor D, 10.00 μM): 11.8%; % HDR (mPB CD34+ cells [1]; Donor D, 10 μM): 13.7%; Viability (mPB CD34+ cells [2]; Donor A, 1.11 μM): 65; Viability (mPB CD34+ cells [2]; Donor A, 3.33 μM): 42; Viability (mPB CD34+ cells [2]; Donor A, 10.00 μM): 36; Viability (mPB CD34+ cells [2]; Donor D, 1.11 μM): 76; Viability (mPB CD34+ cells [2]; Donor D, 3.33 μM): 69; Viability (mPB CD34+ cells [2]; Donor D, 10.00 μM): 34; HDR rates (CD34+ cells): improve HDR rates
